Data on one molecule can be found in US10912819B2, “Neuroprotective peptides derived from activity-dependent neuroprotective protein for treatment of neurological diseases” (priority 2016, dated 2021).

In assay [1] the test system is Adnp^+/− mice. In words: MRI diffusion tensor imaging of chronically treated brains. Format: in vivo. To be noted: NAP in CB vs CB-treated Adnp^+/− mice. Here is the method:
MRI was performed on a 7.0 T/30 spectrometer (Bruker, Rheinstetten, Germany) using a volume coil for excitation and a rat quadrature coil for acquisition. The MRI protocols included coronal T2 and diffusion tensor imaging (DTI). T2 weighted images obtained with RARE sequence, with repetition time=3000 msec and echo time=49 msec, RARE factor 8, 4 averages, field of view of 2×2 cm, matrix dimensions of 256×256 and 24 slices of 0.5 mm thickness with no gap. The 24 coronal sections were used for volumetric analysis of the whole brain, Lateral ventricle and Hippocampus. DTI was obtained using a diffusion-weighted (DW) spin-echo echo-planar-imaging (EPI) pulse sequence with the following parameters: TR/TE=4000/25 ms, Δ/δ=10/4.5 ms, 4 EPI segments and 32 non-collinear gradient directions with a single b value (1000 sec/mm^2) and two images with b value of 0 sec/mm2 (referred to as b0). Geometrical parameters were: 24 slices of 0.5 mm thickness, matrix size of 128×128 and FOV of 20 mm^2). The imaging protocol was repeated 3 times for signal averaging and to compensate for acquisition where significant head motion was observed. Image analysis included DTI analysis of the DW-EPI images to produce the FA, radial, and axial diffusivity indexed maps.

Assay [2] concerns Adnp^+/− mice. Kind of assay: Object recognition test. Format: in vivo. On the procedure: Data are expressed as mean (±SEM) total time (sec) spent exploring all objects designated by relative discrimination index (a and b-exploration of familiar and novel object, respectively) in Phase 2 (A) and Phase 3 (B). Two identical objects were presented during Phase 1 (habituation), and one of the identical objects was replaced by a novel object during Phases 2 and 3. […] (C) 2-month-old mice (n=3-4 males or 6-8 females per experimental group) were treated daily, five times a week for 6 weeks with 0.5 μg NAP/mouse/day by intranasal administration in DD=7.5 mg/ml of NaCl, 1.7 mg/ml of citric acid monohydrate, 3 mg/ml of disodium phosphate dihydrate, and 0.2 mg/ml of 50% benzalkonium chloride solution. Animal performance in the object recognition test after four week treatment is shown. Data are expressed as mean (±SEM) as above, in the long retention choice phase (24 hours after habituation).
(§1) Experiments performed as we described in Malishkevich et al., 2015 (37) and Amram et al., Mol Psychiatry. 2016 October; 21(10):1467-76 (7). 3-6 month-old male mice were used, drug application (0.5 μg/5 μl/mouse) was once daily, for one month and then behavioral assays were initiated together with drug application. In experiments with the vehicle termed DD (NAP-benzalkonium), drug application was at 2 months of age and continued as above. Open field experiments (16, 17) and elevated plus maze evaluations (18) were carried out as before.
Animal performance in the object recognition memory test is shown. Two identical objects were presented during the habituation phase, and one of the identical objects was replaced by a novel object during the short retention choice phase (3 hours) and the long retention choice phase (24 hours).

Assay [3] deals with Foxp2. In words: Foxp2 mRNA expression in the tongue, quantitative real-time PCR. Format: in vivo. To be noted: 4-month-old mice treated with NAP/DD, normalized to Gapdh; increased in Adnp-deficient mice. On the procedure: (B) Foxp2 (the language-linked gene) expression in the tongue is increased in Adnp-deficient mice and is normalized by NAP. Tongue total RNA was extracted from 4-month-old mice (treated with NAP/DD as above) and analyzed for Foxp2 and Gapdh mRNA expression by quantitative real-time PCR (n=3-7 animals per experimental group). Gapdh served as a normalizing transcript. […] Two-way ANOVA analysis was performed using SigmaPlot. Sexual dichotomy determined by t-test analysis was also observed for the increased Foxp2 expression between Adnp males and females (**p<0.01).
Quantitative reverse transcription real time polymerase chain reaction (RT-PCR) was performed as before (18, 37).
A general note: Quantitative PCR measures a nucleic acid by following its amplification.

Assay [4] deals with Adnp^+/− mice. In words: Odor discrimination test. In kind it is in vivo. Here is the method:
As social memory depends on olfactory function, NAP treatment was also tested in odor discrimination test. Odors were presented on a suspended cotton swab to the test mouse placed into the clean cage with fresh shavings. Each mouse was tested during three consecutive 2-min periods for each odor, with 2-min intervals between presentations. The x axis indicates the consecutive number of the odor exposure period. The time that the mouse smelled the swab was recorded (beginning whenever the animal oriented its nostrils toward the cotton swab, within 2 cm or less). (Malishkevich et al., Transl Psychiatry (2015) 5, e501; Amram et al., Mol Psychiatry. 2016 10:1467-76).

Assay [5] has as its system Adnp^+/− mice. Kind of assay: Elevated plus maze test. To be noted: male mice, 5 min, NAP new formulation (CB); NAP-treated vs Adnp^+/− p<0.001. Format: in vivo. Here is the method:
FIG. 4. […] The relative time spent in the open/closed arms for 5 min is presented (n=9-12 per group). Data are expressed as mean±SEM. D2 calculates the exploration time of the open arms (a) and the exploration time of the closed arms (b).
as §1
Experiments were performed as described (18), assessing the different times spent in open arms (indicative of exploratory behavior) versus closed arms (indicative of anxious behavior) in the elevated plus maze (FIG. 4).

Assay [6] relates to schizophrenia patients. To be noted: clinical study; cited from earlier work.

On to `CC[C@H](C)[C@H](NC(=O)[C@H](CO)NC(=O)[C@@H](NC(=O)[C@@H]1CCCN1C(=O)[C@H](C)NC(=O)[C@@H](N)CC(N)=O)C(C)C)C(=O)N1CCC[C@H]1C(=O)N[C@@H](CCC(N)=O)C(=O)O` [NAP], for which the “hippocampal mean diffusivity (MD)” value in assay [1] (hippocampal area −1.84 mm from Bregma) was “although insignificantly, was reduced”. Besides, the “hippocampal fractional anisotropy (FA)” value in assay [1] (hippocampal area −2.34 mm from Bregma, p<0.05) is given as “significantly reduced”. In addition, the “relative discrimination index, long retention choice phase, females” value in assay [2] (2-month-old mice, 0.5 μg NAP/mouse/day intranasal in DD, after four week treatment, p<0.05) is reported as “normalizing the deficient female behavior”. In addition, the “relative discrimination index, long retention choice phase, males” value in assay [2] (2-month-old mice, 0.5 μg NAP/mouse/day intranasal in DD, n=3-4) is on record as “only a trend”. The “relative discrimination index, short retention phase” value in assay [2] (2-month-old mice, NAP intranasal in DD) is “No differences were observed”. Also, in assay [2] (3 hours after habituation, male mice 6-9 months, NAP in CB intranasal, NAP-treated vs Adnp^+/− p<0.001), the “relative discrimination index novel vs familiar object, short retention choice phase” value is recorded as “Significant differences”. Besides, in assay [2] (24 hours after habituation, male mice 6-9 months, NAP in CB intranasal, NAP-treated vs Adnp^+/− p<0.001), the “relative discrimination index novel vs familiar object, long retention choice phase” value was “Significant differences”. In addition, in assay [3], the “Foxp2 expression in the tongue, females” value is “decreasing it” and the “Foxp2 expression in the tongue, males” value is “normalizing it”. The “general olfaction ability (AUC), males” value in assay [4] (2-month-old mice (n=3-4), NAP intranasal in DD, 8 weeks, two-way ANOVA p=0.046) is recorded as “main effect for treatment”. In assay [4] (5-month-old mice, NAP intranasal in CB, 9 weeks, NAP vs vehicle p<0.01), the “general olfaction ability (AUC), females” value was “significant difference”. The “general olfaction ability (AUC), males” value in assay [4] (5-month-old mice, NAP intranasal in CB, 9 weeks, NAP vs vehicle p<0.05) is “significant difference”. Besides, the “general change in olfactory behavior” value in assay [4] (FIG. 3D-G, both sexes, CB and DD) is given as “apparently normalized”. Further, the “increased anxiety: relative time spent in open/closed arms” value in assay [5] was “ameliorated”. The “functional activities of daily living” value in assay [6] is “protection of functional activities of daily living”.
